Assay results as given in PubChem BioAssay (NCI).
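Compound exposure: 48 hours, 5 concentrations, 96-well plates. TGI: concentration producing complete growth inhibition.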

Columns and labels:
Experiment in all cases: NCI-60 cell line screen, 48 h
786-0 renal = tested on: 786-0 renal
A498 renal = tested on: A498 renal
A549 NSCLC = tested on: A549 NSCLC
ACHN renal = tested on: ACHN renal
BT-549 breast = tested on: BT-549 breast
CAKI-1 renal = tested on: CAKI-1 renal
CCRF-CEM leukemia = tested on: CCRF-CEM leukemia
COLO 205 colon = tested on: COLO 205 colon
DU-145 prostate = tested on: DU-145 prostate
EKVX NSCLC = tested on: EKVX NSCLC
HCC-2998 colon = tested on: HCC-2998 colon
HCT-116 colon = tested on: HCT-116 colon
HCT-15 colon = tested on: HCT-15 colon
HL-60(TB) leukemia = tested on: HL-60(TB) leukemia
HOP-62 NSCLC = tested on: HOP-62 NSCLC
HOP-92 NSCLC = tested on: HOP-92 NSCLC
HS 578T breast = tested on: HS 578T breast
HT29 colon = tested on: HT29 colon
IGROV1 ovarian = tested on: IGROV1 ovarian
K-562 leukemia = tested on: K-562 leukemia
KM12 colon = tested on: KM12 colon
LOX IMVI melanoma = tested on: LOX IMVI melanoma
M14 melanoma = tested on: M14 melanoma
MALME-3M melanoma = tested on: MALME-3M melanoma
MCF7 breast = tested on: MCF7 breast
MDA-MB-231 breast = tested on: MDA-MB-231 breast
MDA-MB-435 = tested on: MDA-MB-435
MDA-N = tested on: MDA-N
MOLT-4 leukemia = tested on: MOLT-4 leukemia
NCI-H226 lung = tested on: NCI-H226 lung
NCI-H23 lung = tested on: NCI-H23 lung
NCI-H460 lung = tested on: NCI-H460 lung
NCI-H522 lung = tested on: NCI-H522 lung
NCI/ADR-RES ovarian = tested on: NCI/ADR-RES ovarian
OVCAR-3 ovarian = tested on: OVCAR-3 ovarian
OVCAR-4 ovarian = tested on: OVCAR-4 ovarian
OVCAR-5 ovarian = tested on: OVCAR-5 ovarian
OVCAR-8 ovarian = tested on: OVCAR-8 ovarian
PC-3 prostate = tested on: PC-3 prostate
RPMI-8226 leukemia = tested on: RPMI-8226 leukemia
RXF 393 renal = tested on: RXF 393 renal
SF-268 CNS = tested on: SF-268 CNS
SF-295 CNS = tested on: SF-295 CNS
SF-539 CNS = tested on: SF-539 CNS
SK-MEL-2 melanoma = tested on: SK-MEL-2 melanoma
SK-MEL-28 melanoma = tested on: SK-MEL-28 melanoma
SK-MEL-5 melanoma = tested on: SK-MEL-5 melanoma
SK-OV-3 ovarian = tested on: SK-OV-3 ovarian
SN12C renal = tested on: SN12C renal
SNB-19 CNS = tested on: SNB-19 CNS
SNB-75 CNS = tested on: SNB-75 CNS
SW-620 colon = tested on: SW-620 colon
T-47D breast = tested on: T-47D breast
TK-10 renal = tested on: TK-10 renal
U251 CNS = tested on: U251 CNS
UACC-257 melanoma = tested on: UACC-257 melanoma
UACC-62 melanoma = tested on: UACC-62 melanoma
UO-31 renal = tested on: UO-31 renal

Measured: TGI

CC(C)CNc1nc(N)[nH]c(=O)c1NC=O
> 100 µM: all assays above

Cc1cn(CC2=NCC(C)(C)CN2)c(=O)[nH]c1=O
not listed: CAKI-1 renal | K-562 leukemia | KM12 colon | MDA-MB-435 | MOLT-4 leukemia | OVCAR-3 ovarian | OVCAR-4 ovarian | RPMI-8226 leukemia | SF-539 CNS
> 100 µM: all other assays above

CCOC(=O)N1c2ccccc2S(=O)(=O)c2ccccc21
not listed: HOP-92 NSCLC | MALME-3M melanoma | RPMI-8226 leukemia | SNB-75 CNS
> 100 µM: all other assays above

Cc1ncc(CO)c(CN)c1O
not listed: HOP-92 NSCLC | SNB-75 CNS
> 100 µM: all other assays above
